Values quoted from earlier work as cited in patent US11555040B2, “Oxepinopyrazole derivatives as inhibitors of P13-kinase activity” (GLAXOSMITHKLINE INTELLECTUAL PROPERTY DEVELOPMENT LIMITED, priority 2017, dated 2023).

System: amphetamine-induced psychosis
Conditions: Law et al. 2012

Cc1ccccc1-n1c(Cn2cnc3c(N)ncnc32)nc2cccc(C)c2c1=O [IC87114]
efficacy in mouse model of amphetamine-induced psychosis: remarkable efficacy
